In brackets after ≈: the same amount, converted by molar mass.

Experiment [1] has as its system Staphylococcus aureus X1.1. In words: MIC, standard agar-dilution assay, Staphylococcus aureus X1.1. The conditions noted are these: Staphylococcus aureus X1.1; agar dilution. It is filed as cell-based. For orientation: Agar dilution tests growth on a series of plates holding different concentrations.
Experiment [2] deals with Staphylococcus aureus V41. The experiment can be described thus: MIC, standard agar-dilution assay, Staphylococcus aureus V41. It is filed as cell-based. Conditions: Staphylococcus aureus V41; penicillin-resistant strain; agar dilution.
Experiment [3] deals with Staphylococcus aureus X400. The experiment can be described thus: MIC, standard agar-dilution assay, Staphylococcus aureus X400. It is filed as cell-based. Conditions: Staphylococcus aureus X400; methicillin-resistant strain; agar dilution.
The subject of experiment [4] is Staphylococcus aureus S13E. The experiment can be described thus: MIC, standard agar-dilution assay, Staphylococcus aureus S13E. The experiment is classed as cell-based. The conditions noted are these: Staphylococcus aureus S13E; agar dilution.
The test system of experiment [5] is Staphylococcus epidermidis EPI1. In words: MIC, standard agar-dilution assay, Staphylococcus epidermidis EPI1. The conditions noted are these: Staphylococcus epidermidis EPI1; agar dilution. The experiment is classed as cell-based.
For experiment [6], the system named is Staphylococcus epidermidis EPI2. In words: MIC, standard agar-dilution assay, Staphylococcus epidermidis EPI2. It is filed as cell-based. Conditions: Staphylococcus epidermidis EPI2; agar dilution.
The test system of experiment [7] is Streptococcus pyogenes C203. In words: MIC, standard agar-dilution assay, Streptococcus pyogenes C203. It is filed as cell-based. Conditions: Streptococcus pyogenes C203; agar dilution.
In experiment [8] the test system is Streptococcus pneumoniae Park I. The experiment can be described thus: microbe, parasite or virus in culture. The experiment is classed as cell-based. The conditions noted are these: Streptococcus pneumoniae Park I; agar dilution.
The subject of experiment [9] is Streptococcus Group D X66. The experiment can be described thus: MIC, standard agar-dilution assay, Streptococcus Group D X66. It is filed as cell-based. Conditions: Streptococcus Group D X66; agar dilution.
The subject of a further experiment is Streptococcus Group 9960. The experiment can be described thus: MIC, standard agar-dilution assay, Streptococcus Group 9960. The experiment is classed as cell-based. Conditions: Streptococcus Group 9960; agar dilution.
In experiment [10] the test system is Haemophilus influenzae Holt. In words: MIC, standard agar-dilution assay, Haemophilus influenzae Holt. It is filed as cell-based. The conditions noted are these: Haemophilus influenzae Holt; ampicillin-sensitive strain; agar dilution.
Experiment [11] has as its system Haemophilus influenzae R252. The experiment can be described thus: MIC, standard agar-dilution assay, Haemophilus influenzae R252. It is filed as cell-based. Conditions: Haemophilus influenzae R252; ampicillin-resistant strain; agar dilution.
For another experiment, the system named is Staphylococcus aureus. In words: MIC, broth-dilution microtiter test, Staphylococcus aureus. The conditions noted are these: broth-dilution microtiter. It is filed as cell-based. An excerpt:
(§1) The MIC's in Table X were obtained using conventional broth-dilution microtiter tests.

Another experiment deals with Streptococcus bovis 80. In words: MIC, broth-dilution microtiter test, Streptococcus bovis 80. It is filed as cell-based. Conditions: Streptococcus bovis 80; broth-dilution microtiter.
Source text: as §1

In experiment [12] the test system is Pasteurella multocida 17E. The experiment can be described thus: MIC, broth-dilution microtiter test, Pasteurella multocida 17E. The conditions noted are these: Pasteurella multocida 17E; bovine isolate; broth-dilution microtiter. The experiment is classed as cell-based.
Source text: as §1

Experiment [13] relates to Pasteurella multocida 60A. The experiment can be described thus: MIC, broth-dilution microtiter test, Pasteurella multocida 60A. The experiment is classed as cell-based. The conditions noted are these: Pasteurella multocida 60A; avian isolate; broth-dilution microtiter.
Source text: as §1

Experiment [14] deals with Pasteurella hemolytica 22C. The experiment can be described thus: MIC, broth-dilution microtiter test, Pasteurella hemolytica 22C. It is filed as cell-based. The conditions noted are these: Pasteurella hemolytica 22C; broth-dilution microtiter.
Source text: as §1

In a further experiment the test system is Mycoplasma gallisepticum. In words: MIC, broth-dilution microtiter test, Mycoplasma gallisepticum. It is filed as cell-based. The conditions noted are these: Mycoplasma gallisepticum; broth-dilution microtiter.
Source text: as §1

The subject of a further experiment is Mycoplasma hyorhinis. The experiment can be described thus: MIC, broth-dilution microtiter test, Mycoplasma hyorhinis. Conditions: Mycoplasma hyorhinis; broth-dilution microtiter. The experiment is classed as cell-based.
Source text: as §1

Another experiment concerns Mycoplasma hyopneumoniae. In words: MIC, broth-dilution microtiter test, Mycoplasma hyopneumoniae. Conditions: Mycoplasma hyopneumoniae; broth-dilution microtiter. It is filed as cell-based.
Source text: as §1

The subject of experiment [15] is Streptococcus pyogenes C203. The experiment can be described thus: In vivo protection of mice experimentally infected with S. pyogenes C203. The conditions noted are these: mice, doses given 1 and 4 hours post-infection. Here is the method: The C-20 modified derivatives of this invention have shown in vivo antimicrobial activity against experimentally-induced infections in laboratory animals. When two doses of test compound were administered to mice experimentally infected with S. pyogenes C203, the activity observed was measured as an ED50 value [effective dose in mg/kg to protect 50% of the test animals: see Warren Wick, et al., J. Bacteriol. 81, 233-235 (1961)].

For a further experiment, the system named is Mycoplasma synoviae. The experiment can be described thus: MIC, broth-dilution microtiter test, Mycoplasma synoviae. The experiment is classed as cell-based. Conditions: Mycoplasma synoviae; broth-dilution microtiter.
Source text: as §1

In the case of `CCC(=O)OC1C(OC2C(CCCl)CC(C)C(=O)C=CC(C)=CC(COC3OC(C)C(O)C(OC)C3OC)C(CC)OC(=O)CC(O)C2C)OC(C)C(O)C1N(C)C` (stereo not drawn) [Compound 69, 20-DH-DO-20-Chloro-2'-O-propionyldesmycosin], the MIC was 0.25 µg/mL (≈ 0.295 µM) in [1]; 0.25 µg/mL (≈ 0.295 µM) in experiment [2]; 0.5 µg/mL (≈ 0.589 µM) in experiment [3]; 0.25 µg/mL (≈ 0.295 µM) in experiment [4]; 0.25 µg/mL (≈ 0.295 µM) in experiment [5]; 0.12 µg/mL (≈ 0.141 µM) in experiment [6]. The MIC in [7] was 2 µg/mL (≈ 2.36 µM); in [8] it was 0.25 µg/mL (≈ 0.295 µM); in [9], 8 µg/mL (≈ 9.43 µM); against Streptococcus Group 9960, 8 µg/mL (≈ 9.43 µM); in experiment [10], 16 µg/mL (≈ 18.9 µM); in experiment [11], 16 µg/mL (≈ 18.9 µM). The MIC with Staphylococcus aureus was found to be 0.78 µg/mL (≈ 0.919 µM); with Streptococcus bovis 80, 6.25 µg/mL (≈ 7.37 µM); in [12] it was 25 µg/mL (≈ 29.5 µM); in [13], 2.5 µg/mL (≈ 2.95 µM); in experiment [14] it was 25 µg/mL (≈ 29.5 µM); in the experiment with Mycoplasma gallisepticum, 0.39 µg/mL (≈ 0.46 µM). Further, the MIC worked out at 50 µg/mL (≈ 58.9 µM) in the experiment on Mycoplasma hyorhinis and 12.5 µg/mL (≈ 14.7 µM) against Mycoplasma hyopneumoniae. Also, in experiment [15], the “ED50, Oral” value was 27 mg/kg × 2. Also, the “ED50, Subcutaneous” value in experiment [15] stood at 3.3 mg/kg × 2.
Take `CCC1OC(=O)CC(O)C(C)C(OC2OC(C)CC(N(C)C)C2O)C(CCOc2ccccc2)CC(C)C(=O)C=CC(C)=CC1COC1OC(C)C(O)C(OC)C1OC` (stereo not drawn) [Compound 70, 20-DH-20-O-Phenyl-4'-deoxydesmycosin]: the MIC was found to be 0.25 µg/mL (≈ 0.3 µM) in [1]; 0.25 µg/mL (≈ 0.3 µM) in experiment [2]; 0.25 µg/mL (≈ 0.3 µM) in [3]; 0.25 µg/mL (≈ 0.3 µM) in [4]; 0.25 µg/mL (≈ 0.3 µM) in [5]; 0.12 µg/mL (≈ 0.144 µM) in [6]. The MIC in [7] stood at 0.5 µg/mL (≈ 0.599 µM); in experiment [8] it was 0.5 µg/mL (≈ 0.599 µM); in experiment [9], 2 µg/mL (≈ 2.4 µM); in the experiment on Streptococcus Group 9960, 4 µg/mL (≈ 4.8 µM); in experiment [10], 4 µg/mL (≈ 4.8 µM); in experiment [11] it was 4 µg/mL (≈ 4.8 µM). The MIC worked out at 0.78 µg/mL (≈ 0.935 µM) against Staphylococcus aureus; 6.25 µg/mL (≈ 7.49 µM) against Streptococcus bovis 80; 12.5 µg/mL (≈ 15 µM) in experiment [12]; 12.5 µg/mL (≈ 15 µM) in experiment [13]; 50 µg/mL (≈ 59.9 µM) in experiment [14]; 0.39 µg/mL (≈ 0.468 µM) against Mycoplasma gallisepticum. The MIC against Mycoplasma synoviae is 0.78 µg/mL (≈ 0.935 µM); against Mycoplasma hyorhinis, 12.5 µg/mL (≈ 15 µM). Moreover, the “ED50, Oral” value in experiment [15] was 7 mg/kg × 2. Besides, the “ED50, Subcutaneous” value in [15] is recorded as 3.1 mg/kg × 2.
Regarding `CCC1OC(=O)CC(O)C(C)C(OC2OC(C)C(O)C(N(C)C)C2O)C(CCOc2nnc(-c3ccccc3)c(-c3ccccc3)n2)CC(C)C(=O)C=CC(C)=CC1COC1OC(C)C(O)C(OC)C1OC` (stereo not drawn) [Compound 50, 20-DH-20-O-(5,6-Diphenyl-1,2,4-triazin-3-yl)desmycosin], the MIC in experiment [1] came out at 0.5 µg/mL (≈ 0.497 µM); in [2] it was 0.5 µg/mL (≈ 0.497 µM); in experiment [3] it was 1 µg/mL (≈ 0.995 µM); in [4], 0.5 µg/mL (≈ 0.497 µM); in experiment [5] it was 0.5 µg/mL (≈ 0.497 µM); in [6], 0.5 µg/mL (≈ 0.497 µM). Further, the MIC is 0.5 µg/mL (≈ 0.497 µM) in experiment [7]; 0.5 µg/mL (≈ 0.497 µM) in experiment [8]; 4 µg/mL (≈ 3.98 µM) in [9]; 4 µg/mL (≈ 3.98 µM) with Streptococcus Group 9960; 64 µg/mL (≈ 63.7 µM) in [10]; 64 µg/mL (≈ 63.7 µM) in [11]. Besides, the MIC in the experiment with Staphylococcus aureus is 1.56 µg/mL (≈ 1.55 µM); against Streptococcus bovis 80 it was 3.12 µg/mL (≈ 3.1 µM); in experiment [12], 25 µg/mL (≈ 24.9 µM); in experiment [13], 25 µg/mL (≈ 24.9 µM); in [14], “-- (Not active at 50 mcg/ml, the highest level tested)”; in the experiment on Mycoplasma gallisepticum it was at most 0.048 µg/mL. The figures for the MIC against Mycoplasma synoviae and in the experiment with Mycoplasma hyorhinis were 0.39 µg/mL (≈ 0.388 µM) and 12.5 µg/mL (≈ 12.4 µM), respectively. Also, in [15], the “ED50, Oral” value is reported as above 50 mg/kg × 2. Moreover, the “ED50, Subcutaneous” value in [15] is on record as above 10 mg/kg × 2.

Source of the values: patent US4443436A, “C-20-Modified macrolide derivatives of the macrolide antibiotics tylosin, desmycosin, macrocin, and lactenocin” (Eli Lilly and Company, priority 1982, dated 1984).
